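Each compound was tested at five concentrations against cells in 96-well plates for 48 hours. Abbreviation: GI50, concentration required for 50% inhibition of growth.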 Active and inactive are the calls of the source. Rule as the data show it: active = GI50 up to about 1.1 µM and inactive = higher.
How the values were obtained:
Test in all cases: NCI tumour cell line growth inhibition, 48 h
[1] = system: HT-29
[2] = system: M14
[3] = system: CAKI-1
[4] = system: OVCAR-4
[5] = system: LOX IMVI
[6] = system: KM12
[7] = system: SK-MEL-5
[8] = system: OVCAR-3
[9] = system: SK-MEL-2
[10] = system: UACC-62
[11] = system: HL-60
[12] = system: DMS-114
[13] = system: SNB-78
[14] = system: COLO 205
[15] = system: TK-10
[16] = system: UO-31
[17] = system: NCI-H522
[18] = system: SNB-75
[19] = system: SR
[20] = system: RPMI-8226
[21] = system: A549
[22] = system: Malme-3M
[23] = system: SK-OV-3
[24] = system: UACC-257
[25] = system: HOP-18
[26] = system: DLD-1
[27] = system: DMS-273
[28] = system: KM-20L2
[29] = system: 786-0
[30] = system: CCRF-CEM
[31] = system: SNB-19
[32] = system: MOLT-4
[33] = system: SN12C
[34] = system: NCI-H23
[35] = system: HCT-15
[36] = system: ACHN
[37] = system: SF-295
[38] = system: NCI-H460
[39] = system: SW-620
[40] = system: NCI-H226
[41] = system: U-251
[42] = system: M19-MEL
[43] = system: HOP-62
[44] = system: SF-268
[45] = system: OVCAR-8
[46] = system: SK-MEL-28
[47] = system: HCC 2998
[48] = system: EKVX
[49] = system: LXFL 529
[50] = system: RXF 393
[51] = system: OVCAR-5
[52] = system: HCT-116
[53] = system: IGROV-1
[54] = system: K562
[55] = system: SF-539
[56] = system: HOP-92
[57] = system: XF498
[58] = system: A498

For `CCOC(=O)C1(C#N)C(c2ccccc2)CC(O)(c2ccc(OC)cc2)C(C(=O)c2ccc(OC)cc2)C1c1ccccc1` (stereo unspecified), the GI50 [1] was > 100 µM (inactive), the GI50 [2] was > 100 µM (inactive) and the GI50 [3] was 98.2 µM (inactive). For the same compound, the GI50 [4] was > 100 µM (inactive), the GI50 [5] was > 100 µM (inactive) and the GI50 [6] was > 100 µM (inactive). For the same compound, the GI50 [7] was > 100 µM (inactive), the GI50 [8] was > 100 µM (inactive) and the GI50 [9] was > 100 µM (inactive). For the same compound, the GI50 [10] was > 100 µM (inactive), the GI50 [11] was > 100 µM (inactive) and the GI50 [12] was > 100 µM (inactive). For the same compound, the GI50 [13] was > 100 µM (inactive), the GI50 [14] was > 100 µM (inactive) and the GI50 [15] was > 100 µM (inactive). For the same compound, the GI50 [16] was 74.6 µM (inactive), the GI50 [17] was > 100 µM (inactive) and the GI50 [18] was 27.7 µM (inactive). For the same compound, the GI50 [19] was > 100 µM (inactive), the GI50 [20] was > 100 µM (inactive) and the GI50 [21] was > 100 µM (inactive). For the same compound, the GI50 [22] was > 100 µM (inactive), the GI50 [23] was > 100 µM (inactive) and the GI50 [24] was > 100 µM (inactive). For the same compound, the GI50 [25] was 15.6 µM (inactive), the GI50 [26] was > 100 µM (inactive) and the GI50 [27] was > 100 µM (inactive). The GI50 [28] was > 100 µM (inactive), the GI50 [29] was > 100 µM (inactive) and the GI50 [30] was > 100 µM (inactive). For the same compound, the GI50 [31] was 32.4 µM (inactive), the GI50 [32] was > 100 µM (inactive) and the GI50 [33] was > 100 µM (inactive). The GI50 [34] was > 100 µM (inactive), the GI50 [35] was greater than 100 µM and the GI50 [36] was > 100 µM (inactive). For the same compound, the GI50 [37] was > 100 µM (inactive), the GI50 [38] was > 100 µM (inactive) and the GI50 [39] was > 100 µM (inactive). For the same compound, the GI50 [40] was > 100 µM (inactive), the GI50 [41] was > 100 µM (inactive) and the GI50 [42] was > 100 µM (inactive). For the same compound, the GI50 [43] was > 100 µM (inactive), the GI50 [44] was > 100 µM (inactive) and the GI50 [45] was > 100 µM (inactive). For the same compound, the GI50 [46] was > 100 µM (inactive), the GI50 [47] was > 100 µM (inactive) and the GI50 [48] was > 100 µM (inactive). The GI50 [49] was > 100 µM (inactive), the GI50 [50] was > 100 µM (inactive) and the GI50 [51] was > 100 µM (inactive). The GI50 [52] was > 100 µM (inactive), the GI50 [53] was > 100 µM (inactive) and the GI50 [54] was > 100 µM (inactive).
For `COc1ccc(/C(C#N)=C(/N)SCc2ccccc2Cl)cc1`, the GI50 [1] was 17.5 µM (inactive), the GI50 [55] was 17.4 µM (inactive) and the GI50 [2] was 14.2 µM (inactive). For the same compound, the GI50 [56] was 17.8 µM (inactive), the GI50 [5] was 15.2 µM (inactive) and the GI50 [6] was > 10 µM (inactive). For the same compound, the GI50 [8] was 11.1 µM (inactive), the GI50 [57] was 14.8 µM (inactive) and the GI50 [9] was 16.5 µM (inactive). The GI50 [10] was 11.9 µM (inactive), the GI50 [11] was 14.3 µM (inactive) and the GI50 [58] was 18.9 µM (inactive). The GI50 [12] was 17.7 µM (inactive), the GI50 [13] was 27 µM (inactive) and the GI50 [14] was 20.3 µM (inactive). The GI50 [15] was 32.1 µM (inactive), the GI50 [16] was > 10 µM (inactive) and the GI50 [17] was 14 µM (inactive). The GI50 [18] was 23.2 µM (inactive), the GI50 [19] was 25.2 µM (inactive) and the GI50 [20] was 22.8 µM (inactive). The GI50 [21] was 26.4 µM (inactive), the GI50 [22] was 17.5 µM (inactive) and the GI50 [23] was 27.8 µM (inactive). For the same compound, the GI50 [24] was 16.7 µM (inactive), the GI50 [25] was 19.5 µM (inactive) and the GI50 [26] was 14.1 µM (inactive). The GI50 [28] was 17.8 µM (inactive), the GI50 [29] was 16.1 µM (inactive) and the GI50 [30] was 27.9 µM (inactive). The GI50 [31] was > 10 µM (inactive), the GI50 [32] was 19.1 µM (inactive) and the GI50 [33] was 24.7 µM (inactive). The GI50 [34] was 16.8 µM (inactive), the GI50 [36] was > 10 µM (inactive) and the GI50 [37] was 17.1 µM (inactive). For the same compound, the GI50 [39] was 16.1 µM (inactive), the GI50 [40] was 16.4 µM (inactive) and the GI50 [41] was 18.1 µM (inactive). The GI50 [42] was 16.6 µM (inactive), the GI50 [43] was 14.8 µM (inactive) and the GI50 [44] was 16.4 µM (inactive). The GI50 [45] was > 10 µM (inactive), the GI50 [46] was 17.9 µM (inactive) and the GI50 [47] was 17 µM (inactive). For the same compound, the GI50 [48] was 21.2 µM (inactive), the GI50 [49] was 14.4 µM (inactive) and the GI50 [50] was 16.6 µM (inactive). For the same compound, the GI50 [51] was 18.2 µM (inactive), the GI50 [52] was 18.8 µM (inactive) and the GI50 [53] was 29.2 µM (inactive). For the same compound, the GI50 [54] was 18.5 µM (inactive).

— ChEMBL document CHEMBL1201862, “PubChem BioAssay data set” (2004)
